# Counter-ions that a name gives are not always drawn.
# Legend:
# Assay type in all cases: in vivo, human
# [1] = test system: wounds, bacterial skin infections, diabetic foot syndrome; test: Wound care: topical/local application (patient cases); conditions: for wound check-up, ulcer c) / wound check-up, ulcer a) / wound check-up, ulcer b): Patient D 3; for wound check-up: Patient D 4
# Description: Postoperative wound infections can generally occur in cases of inadequate infection prophylaxis following surgical interventions. Posttraumatic wound infections can arise due to cuts, stings, bruises, bites or gunshot wounds. Local perioperative prophylaxis can be carried out in the case of aseptic operations with a slight risk of infection. It is also possible to use local perioperative prophylaxis in addition to systemic perioperative prophylaxis, for example in the case of infections with an increased risk of infection, such as implantations, heart operations, transplantations, neurosurgical operations, operations in a highly contaminated area such as the oral cavity, oesophagus, rectum or colon, hysterectomy, bile duct operations, operations on patients with lowered resistance, or amputations. The local treatment of first, second or third degree burns can be administered prophylactically or after infection. […] Examples of hand infections are panaritium cutaueum, panaritium subcutaneum, panaritium ossale, panaritium articulate or tendovaginitis purulenta. In postoperative sepsis the infected wounds can be rendered substantially or completely free of microbes by the topical application of antibacterial agents. Gangrenes can be handled by local treatment with antibiotics in addition to therapy with parenteral antibiotics. Examples of acute bacterial skin infections are pyoderma, erysipelas, furuncles, carbuncles, phlegmons, abscesses, ulcus cruris, diabetic foot, infected decubital ulcers, blood blisters, erysipeloids or erytlrasma. Examples of chronic bacterial skin infections are lupus vulgaris, swimming-pool granuloma, Buruli ulcers or actinomycosis. Secondary bacterial infections occur for example in virus infections such as herpes simplex, herpes zoster or chicken-pox. Secondary bacterial infections of dermatoses occur for example in eczema, the exudation stage of neurodermatitis, vesicular dermatoses or contact dermatitis. Milder and moderate forms of acne and rosacea can also be treated locally.
# periodontal diseases = test: Topical treatment of periodontal diseases (patient cases)
# Description: To do this, threads or so-called chips impregnated with solutions or gelatinous preparations of the compounds of formula (I) or formula (II) are inserted in the gingival pocket. A possible alternative is to use medicament carriers in the form of trays covering the teeth and gingiva. Before they are applied, the gelatinous applications of the compounds of formula (I) or formula (II) are instilled into the gingival pockets. In addition, the gel containing the compounds of formula (I) or formula (II) can also be placed in the medicament carrier. This use of medicament carriers is advantageous because the treatment time can be reduced by the rapid onset of action to about 15 to 30 minutes, so the treatment can be carried out directly in the surgery. The compounds of formula (I) or formula (II) can be used in concentrations of 0.005 mg/ml to 200 mg/ml. Preferred concentrations are those ranging from 0.5 mg/ml to 200 mg/ml and particularly preferred concentrations are those ranging from 10 to 150 mg/ml. Periodontal diseases can also be treated by administering the compounds of formula (I) or formula (II) by intraligamental injection, it being possible to use concentrations ranging from 0.005 mg/ml to 200 mg/ml, preferably from 0.5 mg/ml to 200 mg/ml. For the antibiotics commonly used nowadays, such as tetracyclines, an intraligamental injection is not reasonable since these compounds with a predominantly bacteriostatic action are quickly washed out due to the rapid fluid exchange in the periodontal interstice, and cannot develop their action. Tetra-cyclines can therefore only develop their effects via depot formulations. By contrast, the compounds of formula (I) or formula (II) have a very rapid and also bactericidal action, so their residence time in the periodontal interstice is sufficient to destroy the microbes.
# osseomucosal wounds = test: Topical treatment of osseomucosal wounds (patient cases)
# Description: Application is effected by flushing and/or by means of strip inserts impregnated with compounds of formula (I) or formula (II). They are to be used for example for postoperative infections following dentosurgical interventions (extractions). For this purpose the gel containing the compound of formula (I) or formula (II) is syringed directly into the extraction wound or onto a collagen sponge which remains in the extraction wound. The wound is closed for about half an hour by biting on a tampon. Prophylactic applications have been particularly successful after the extraction of teeth with focal infections, Liquid forms of administration suitable for flushing fistulae are those containing the compounds of formula (I) or formula (II) in concentrations of 0.005 mg/ml to 250 mg/ml. Preferred concentrations are those ranging from 0.5 to 100 mg/ml, Forms suitable for coating strips are gels containing the compounds of formula (I) or formula (II), as well as aqueous solutions or suspensions. These applications can contain the compounds of formula (I) or formula (II) in concentrations of 0.005 mg/ml to 200 mg/ml. Preferred concentrations for solutions are those ranging from 0.1 to 50 mg/ml Gelatinous forms of administration in concentrations of 25-150 mg/ml are preferred in the case of strip inserts.
# [2] = gel (1%) weekly, after 2nd week
smiles,measurement,setting,value
"COc1c(N2C[C@@H]3CCCN[C@@H]3C2)c(F)cc2c(=O)c(C(=O)O)cn(C3CC3)c12 [moxifloxacin hydrochloride, 1-cyclopropyl-6-fluoro-1,4-dihydro-8-methoxy-7-[(4aS,7aS)-octahydro-6H-pyrrolo[3,4-b]pyridin-6-yl]-4-oxo-3-quinolinecarboxylic acid]",wound outcome,"[1]; Patient D 1, combustio escharotica on left forearm, gel (1%), after one week",Regeneration of skin epithelium with complete wound closure
same,"wound check-up, ulcer c)","[1]; D IV/D V, gel (1%) weekly, after 2nd week",ulcer C IV/D V healed
same,"wound check-up, ulcer a)","[1]; deep 2×1.5 cm greasy ulcer under right big toe, dressings with gel (1%) at weekly intervals, after 1st week","ulcer D I, 1×0.5 cm, clean"
same,"wound check-up, ulcer a)",[1]; [2],"ulcer D I pinhead-size, clean"
same,"wound check-up, ulcer a)","[1]; gel (1%) weekly, after 3rd week",ulcer D I unchanged
same,"wound check-up, ulcer a)","[1]; gel (1%) weekly, after 4th week",ulcer D I healed
same,"wound check-up, ulcer c)","[1]; large fissure D IV/D V, dressings with gel (1%) at weekly intervals, after 1st week",ulcer D IV/D V encrusted
same,"wound check-up, ulcer b)","[1]; large ulcer D III, dressings with gel (1%) at weekly intervals, after 1st week",ulcer D III clean
same,"wound check-up, ulcer b)","[1]; ulcer D III, gel (1%) weekly, after 2nd week","ulcer D III, clean granular tissue"
same,"wound check-up, ulcer b)","[1]; ulcer D III, gel (1%) weekly, after 3rd week",ulcer D III pinhead-size
same,"wound check-up, ulcer b)","[1]; ulcer D III, gel (1%) weekly, after 4th week",ulcer D III healed
same,wound check-up,"[1]; diabetic foot syndrome, 1×1 cm greasy ulcer, dressings with gel (1%) at weekly intervals, after 1st week","ulcer 0.2×0.4 cm, clean"
same,wound check-up,[1]; [2],ulcer healed
same,wound outcome,"[1]; Patient D 5, diabetic gangrene on left big toe, four applications of gel (1%) at weekly intervals","Regeneration of skin epithelium with complete wound closure, revascularization"
same,clinical outcome,"[1]; Patient D 7, phlegmons on palm of left hand, incision, local antibiosis with gel (1%), repeated after 2 days",Patient symptom-free
same,clinical outcome,"[1]; Patient D 9, carbuncle on back of neck, excision, open wound treatment with impregnated compress",Patient symptom-free
same,clinical finding at check-up,"periodontal diseases; Patient B 1, teeth 26 and 27 marginal periodontitis, thread insert gel 50 mgn/ml, check-up after 3 days","patient symptom-free, gingival regions and pockets inflammation-free"
same,clinical finding at check-up,"periodontal diseases; Patient B 2, teeth 14 to 18 severe marginal periodontitis, thread insert gel 50 mg/ml, check-up after 4 days","patient symptom-free, gingival regions and pockets inflammation-free"
same,clinical finding at check-up,"periodontal diseases; Patient B 3, teeth 24 to 28 marginal periodontitis, thread insert 50 mg/ml, check-up after 5 days","patient symptom-free, gingival regions and pockets inflammation-free"
same,clinical finding at check-up,"periodontal diseases; Patient B 4, marginal periodontitis entire upper and lower jaw, medicinal splint gel 0.25 mg/ml 10 minutes/day for 4 days, check-up after 3 days","patient symptom-free, no more inflammatory phenomena present"
same,clinical finding at check-up,"periodontal diseases; Patient B 5, tooth 37 marginal periodontitis, thread insert gel 50 mg/ml, check-up after 8 days","patient symptom-free, gingival regions and pockets inflammation-free"
same,clinical finding at check-up,"periodontal diseases; Patient B 6, teeth 25-28 severe marginal periodontitis, thread insert gel 50 mg/ml + intraligamental injection 50 mg/ml, check-up after 10 days","patient symptom-free, gingival regions and pockets inflammation-free"
same,clinical finding at check-up,"osseomucosal wounds; Patient C 1, wound care after extraction, depot of gel 50 mg/ml by gauze strip, check-up after 3 days","patient symptom-free, good wound margin adaptation"
same,clinical finding at check-up,"osseomucosal wounds; Patient C 2, regio 36 fistulation, incision, flushing solution 50 mg/ml + strip insert gel 50 mg/ml, check-up after 3 days","patient symptom-free, good rapid healing process"
same,clinical finding at check-up,"osseomucosal wounds; Patient C 3, teeth 26 and 46 apical granulomas, extraction (osteotomy), gauze with gel 50 mg/ml, check-up after 2 days",patient symptom-free
same,clinical finding at check-up,"osseomucosal wounds; Patient C 4, gauze with gel 50 mg/ml, check-up after one week","good wound margin adaptation, patient symptom-free"
same,clinical finding at check-up,"osseomucosal wounds; Patient C 4, tooth 48 osteotomy, gauze with gel 50 mg/ml, check-up after 2 days","slight wound pain, no postoperative oedema"
same,clinical finding at check-up,"osseomucosal wounds; Patient C 5, after root canal filling, check-up after 3 weeks",patient symptom-free
same,clinical finding at check-up,"osseomucosal wounds; Patient C 5, tooth 34 pulpitis purulenta, fistulation, flushing solution 50 mg/ml + canal insert and gauze insert gel 50 mg/ml, check-up after 3 days","good healing process, patient symptom-free"
same,clinical finding at check-up,"osseomucosal wounds; Patient C 6, tooth 36 wound care after extraction, depot of gel 50 mg/ml by gauze strips, check-up after 3 days","patient symptom-free, good wound margin adaptation"
same,clinical finding at check-up,"osseomucosal wounds; Patient C 7, tooth 22 root tip resection due to cyst, strip insert gel 50 mg/ml, check-up after 3 days","patient symptom-free, good healing process"
same,clinical finding at check-up,"osseomucosal wounds; Patient C 9, same combined treatment, after root canal filling, check-up after 2 weeks",patient symptom-free
same,clinical finding at check-up,"osseomucosal wounds; Patient C 9, tooth 14 pulpitis purulenta, fistulation, moxifloxacin hydrochloride solution 25 mg/ml flushing + grepafloxacin gel 25 mg/ml canal insert + moxifloxacin hydrochloride gel 25 mg/ml gauze insert, check-up after 6 days",patient symptom-free

# From patent US8975275B2, “Use of chemotherapeutic agents” (priority 1999, dated 2015)
